Measurements taken from ChEMBL document CHEMBL1136305, “Structure-activity relationships within a series of caspase inhibitors: effect of leaving group modifications” (Bioorg Med Chem Lett, 2003).

Assays:
Caspase-3 (Homo sapiens) = molecular target: T1, Caspase-3 (Homo sapiens) (UniProt P42574); test: Inhibitory activity against caspase-3 (Csp-3)
T1 sequence (whole entry): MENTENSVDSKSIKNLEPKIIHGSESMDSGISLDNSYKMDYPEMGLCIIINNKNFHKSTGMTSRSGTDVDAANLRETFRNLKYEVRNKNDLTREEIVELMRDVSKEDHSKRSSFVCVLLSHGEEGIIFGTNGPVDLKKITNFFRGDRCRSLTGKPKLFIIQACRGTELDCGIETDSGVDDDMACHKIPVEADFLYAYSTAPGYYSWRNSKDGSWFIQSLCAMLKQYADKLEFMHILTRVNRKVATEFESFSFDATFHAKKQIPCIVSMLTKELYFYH

Caspase-1 (Mus musculus) = molecular target: T2, Caspase-1 (Mus musculus) (UniProt P29452); test: Inhibitory activity against murine caspase-1
T2 sequence (whole entry): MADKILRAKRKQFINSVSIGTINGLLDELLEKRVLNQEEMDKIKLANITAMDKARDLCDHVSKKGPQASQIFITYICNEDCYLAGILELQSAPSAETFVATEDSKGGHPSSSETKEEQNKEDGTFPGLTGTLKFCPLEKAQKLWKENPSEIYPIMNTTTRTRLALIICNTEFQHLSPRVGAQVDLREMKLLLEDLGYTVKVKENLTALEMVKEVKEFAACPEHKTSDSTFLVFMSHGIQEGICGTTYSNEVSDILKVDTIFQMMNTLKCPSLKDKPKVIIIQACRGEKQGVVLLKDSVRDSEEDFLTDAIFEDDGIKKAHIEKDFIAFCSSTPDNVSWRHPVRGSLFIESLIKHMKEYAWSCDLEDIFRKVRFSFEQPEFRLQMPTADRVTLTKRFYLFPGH

[1] = Cellular assay in a model of neuronal apoptosis involving cortical neurons exposed to concanavalin A; format: functional
Jurkat = test: Cellular assay in a Fas-induced model of apoptosis in Jurkat cells; format: functional, cell-based; details: Homo sapiens
Caspase-6 (Homo sapiens) = molecular target: T3, Caspase-6 (Homo sapiens) (UniProt P55212); test: Inhibitory activity against caspase-6 (Csp-6)
T3 sequence (whole entry): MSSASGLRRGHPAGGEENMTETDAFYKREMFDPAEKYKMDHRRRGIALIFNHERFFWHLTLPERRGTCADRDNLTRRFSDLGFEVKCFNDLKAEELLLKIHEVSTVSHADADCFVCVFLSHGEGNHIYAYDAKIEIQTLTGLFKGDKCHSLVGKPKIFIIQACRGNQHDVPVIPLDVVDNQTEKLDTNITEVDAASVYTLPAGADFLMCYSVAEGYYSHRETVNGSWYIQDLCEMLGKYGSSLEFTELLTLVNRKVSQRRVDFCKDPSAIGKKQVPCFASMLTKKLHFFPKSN

Caspase-8 (Homo sapiens) = Caspase-8 (Homo sapiens) (UniProt Q14790); test: Inhibitory activity against caspase-8 (Csp-8)
Homo sapiens = species: Homo sapiens; test: Cellular assay in an inflammation model measuring IL1-beta secretion from isolated human monocytes induced with Staph A; format: functional

Chain of Caspase-8 (Homo sapiens) (Q14790 217-374 limits assumed): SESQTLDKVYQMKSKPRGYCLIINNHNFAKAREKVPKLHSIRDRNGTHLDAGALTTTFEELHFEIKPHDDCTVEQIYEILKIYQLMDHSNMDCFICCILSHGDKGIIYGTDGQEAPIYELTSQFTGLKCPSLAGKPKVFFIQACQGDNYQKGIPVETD
Chain of Caspase-8 (Homo sapiens) (Q14790 385-479 limits assumed): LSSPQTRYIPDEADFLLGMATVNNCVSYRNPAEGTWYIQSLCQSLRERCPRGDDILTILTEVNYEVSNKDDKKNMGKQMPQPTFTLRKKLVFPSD

| k3/Ki (Caspase-3 (Homo sapiens)) | k3/Ki (Caspase-1 (Mus musculus)) | IC50 [1] | IC50 (Jurkat) | k3/Ki (Caspase-6 (Homo sapiens)) | k3/Ki (Caspase-8 (Homo sapiens)) | IC50 (Homo sapiens) | SMILES |
| --- | --- | --- | --- | --- | --- | --- | --- |
| 10200 M⁻¹ s⁻¹ | 3720 M⁻¹ s⁻¹ | > 50 µM | > 100 µM | 46 M⁻¹ s⁻¹ | 48 M⁻¹ s⁻¹ | 26.7 µM | CC(C)[C@H](NC(=O)COc1cccc2ccccc12)C(=O)N[C@@H](CC(=O)O)C(=O)COc1ccc(C#N)cc1 |
| 17700 M⁻¹ s⁻¹ | 1520 M⁻¹ s⁻¹ | – | > 100 µM | – | 21 M⁻¹ s⁻¹ | – | CC(C)[C@H](NC(=O)COc1cccc2ccccc12)C(=O)N[C@@H](CC(=O)O)C(=O)COc1ccc(C(=O)c2ccccc2)cc1 |
| 24400 M⁻¹ s⁻¹ | 11400 M⁻¹ s⁻¹ | 4.16 µM | 39.3 µM | 634 M⁻¹ s⁻¹ | 668 M⁻¹ s⁻¹ | 16.7 µM | CC(C)[C@H](NC(=O)COc1cccc2ccccc12)C(=O)N[C@@H](CC(=O)O)C(=O)COc1cc(F)c(F)cc1F |
| 6930 M⁻¹ s⁻¹ | 1540 M⁻¹ s⁻¹ | > 50 µM | 9.3 µM | 625 M⁻¹ s⁻¹ | 1120 M⁻¹ s⁻¹ | 24.9 µM | CC(C)[C@H](NC(=O)COc1cccc2ccccc12)C(=O)N[C@@H](CC(=O)O)C(=O)COc1ccc(Oc2ccc(C(F)(F)F)cc2)cc1 |
| 49000 M⁻¹ s⁻¹ | 12100 M⁻¹ s⁻¹ | 4.85 µM | > 100 µM | 1330 M⁻¹ s⁻¹ | 483 M⁻¹ s⁻¹ | 19.7 µM | CC(C)[C@H](NC(=O)COc1cccc2ccccc12)C(=O)N[C@@H](CC(=O)O)C(=O)COc1cc(F)ccc1F |
| 7980 M⁻¹ s⁻¹ | 2450 M⁻¹ s⁻¹ | > 50 µM | > 100 µM | – | 150 M⁻¹ s⁻¹ | 16.6 µM | CC(C)[C@H](NC(=O)COc1cccc2ccccc12)C(=O)N[C@@H](CC(=O)O)C(=O)COc1cccc(C(F)(F)F)c1 |
| 9240 M⁻¹ s⁻¹ | 2170 M⁻¹ s⁻¹ | 11.6 µM | > 100 µM | 106 M⁻¹ s⁻¹ | 154 M⁻¹ s⁻¹ | 15.9 µM | CC(C)[C@H](NC(=O)COc1cccc2ccccc12)C(=O)N[C@@H](CC(=O)O)C(=O)COc1cc(F)cc(F)c1 |
| 21700 M⁻¹ s⁻¹ | 8400 M⁻¹ s⁻¹ | > 50 µM | 33.2 µM | – | 628 M⁻¹ s⁻¹ | 17.6 µM | CC(C)[C@H](NC(=O)COc1cccc2ccccc12)C(=O)N[C@@H](CC(=O)O)C(=O)COc1ccc(F)cc1F |
| 28800 M⁻¹ s⁻¹ | 14800 M⁻¹ s⁻¹ | 5.2 µM | – | 1610 M⁻¹ s⁻¹ | 197 M⁻¹ s⁻¹ | – | CC(C)[C@H](NC(=O)COc1cccc2ccccc12)C(=O)N[C@@H](CC(=O)O)C(=O)COc1cccc(F)c1F |
| 9520 M⁻¹ s⁻¹ | 1900 M⁻¹ s⁻¹ | > 50 µM | 12.7 µM | 370 M⁻¹ s⁻¹ | 668 M⁻¹ s⁻¹ | 19 µM | CC(C)[C@H](NC(=O)COc1cccc2ccccc12)C(=O)N[C@@H](CC(=O)O)C(=O)COc1ccc(Oc2ccccc2)cc1 |
| 200000 M⁻¹ s⁻¹ | 53900 M⁻¹ s⁻¹ | 2.4 µM | 2.04 µM | 9980 M⁻¹ s⁻¹ | 9080 M⁻¹ s⁻¹ | > 100 µM | CC(C)[C@H](NC(=O)COc1cccc2ccccc12)C(=O)N[C@@H](CC(=O)O)C(=O)COc1c(F)cccc1F |
| 8560 M⁻¹ s⁻¹ | 9120 M⁻¹ s⁻¹ | > 50 µM | > 100 µM | – | 699 M⁻¹ s⁻¹ | 14.3 µM | CC(C)[C@H](NC(=O)COc1cccc2ccccc12)C(=O)N[C@@H](CC(=O)O)C(=O)COc1ccc(F)cc1 |
| 30600 M⁻¹ s⁻¹ | 1410 M⁻¹ s⁻¹ | > 50 µM | > 100 µM | – | 359 M⁻¹ s⁻¹ | 15.4 µM | CC(C)[C@H](NC(=O)COc1cccc2ccccc12)C(=O)N[C@@H](CC(=O)O)C(=O)COc1cccc(OC(F)(F)F)c1 |
| 10500 M⁻¹ s⁻¹ | 2360 M⁻¹ s⁻¹ | > 50 µM | 29.1 µM | 776 M⁻¹ s⁻¹ | 2420 M⁻¹ s⁻¹ | – | CC(C)[C@H](NC(=O)COc1cccc2ccccc12)C(=O)N[C@@H](CC(=O)O)C(=O)COc1ccc(OC(F)(F)F)cc1 |

Further lines, the compound ahead of its results:

| SMILES | k3/Ki (Caspase-3 (Homo sapiens)) | k3/Ki (Caspase-1 (Mus musculus)) | IC50 [1] | IC50 (Jurkat) | k3/Ki (Caspase-6 (Homo sapiens)) | k3/Ki (Caspase-8 (Homo sapiens)) | IC50 (Homo sapiens) |
| --- | --- | --- | --- | --- | --- | --- | --- |
| CC(=O)Nc1cccc(OCC(=O)[C@H](CC(=O)O)NC(=O)[C@@H](NC(=O)COc2cccc3ccccc23)C(C)C)c1 | 4900 M⁻¹ s⁻¹ | 612 M⁻¹ s⁻¹ | > 50 µM | > 100 µM | – | – | – |
| CC(C)[C@H](NC(=O)COc1cccc2ccccc12)C(=O)N[C@@H](CC(=O)O)C(=O)COc1c(F)c(F)c(F)c(F)c1F | 56600 M⁻¹ s⁻¹ | 14700 M⁻¹ s⁻¹ | – | 3.05 µM | 13600 M⁻¹ s⁻¹ | 8040 M⁻¹ s⁻¹ | 8.89 µM |
| CC(C)[C@H](NC(=O)COc1cccc2ccccc12)C(=O)N[C@@H](CC(=O)O)C(=O)COc1ccc([N+](=O)[O-])cc1 | 8400 M⁻¹ s⁻¹ | 6130 M⁻¹ s⁻¹ | 13.5 µM | > 100 µM | 117 M⁻¹ s⁻¹ | 137 M⁻¹ s⁻¹ | 22.8 µM |
| CC(C)[C@H](NC(=O)COc1cccc2ccccc12)C(=O)N[C@@H](CC(=O)O)C(=O)COc1cccc(C(F)(F)F)c1F | 33900 M⁻¹ s⁻¹ | 7220 M⁻¹ s⁻¹ | 3.7 µM | 50.4 µM | 683 M⁻¹ s⁻¹ | 1030 M⁻¹ s⁻¹ | 18.2 µM |
| CC(C)[C@H](NC(=O)COc1cccc2ccccc12)C(=O)N[C@@H](CC(=O)O)C(=O)COc1ccc(F)c(F)c1F | 35800 M⁻¹ s⁻¹ | 11900 M⁻¹ s⁻¹ | > 50 µM | 35.8 µM | 253 M⁻¹ s⁻¹ | 769 M⁻¹ s⁻¹ | 20.6 µM |
| CC(C)[C@H](NC(=O)COc1cccc2ccccc12)C(=O)N[C@@H](CC(=O)O)C(=O)COc1c(Cl)cccc1Cl | 179000 M⁻¹ s⁻¹ | 25300 M⁻¹ s⁻¹ | 2.75 µM | 3 µM | 87700 M⁻¹ s⁻¹ | 2710 M⁻¹ s⁻¹ | 15.3 µM |
| CC(C)[C@H](NC(=O)COc1cccc2ccccc12)C(=O)N[C@@H](CC(=O)O)C(=O)COc1ccccc1C(F)(F)F | 20000 M⁻¹ s⁻¹ | 5630 M⁻¹ s⁻¹ | > 50 µM | > 100 µM | 494 M⁻¹ s⁻¹ | 75 M⁻¹ s⁻¹ | 17.3 µM |
| CC(C)[C@H](NC(=O)COc1cccc2ccccc12)C(=O)N[C@@H](CC(=O)O)C(=O)COc1c(F)c(F)cc(F)c1F | 268000 M⁻¹ s⁻¹ | 77500 M⁻¹ s⁻¹ | 2.17 µM | 4.5 µM | 78900 M⁻¹ s⁻¹ | 30200 M⁻¹ s⁻¹ | 6.25 µM |
| CC(C)[C@H](NC(=O)COc1cccc2ccccc12)C(=O)N[C@@H](CC(=O)O)C(=O)COc1ccc(C(N)=O)cc1 | 17700 M⁻¹ s⁻¹ | 3650 M⁻¹ s⁻¹ | > 50 µM | > 100 µM | 744 M⁻¹ s⁻¹ | – | – |
| CC(C)[C@H](NC(=O)COc1cccc2ccccc12)C(=O)N[C@@H](CC(=O)O)C(=O)COc1ccccc1[N+](=O)[O-] | 73000 M⁻¹ s⁻¹ | 23500 M⁻¹ s⁻¹ | 5.85 µM | > 100 µM | 10700 M⁻¹ s⁻¹ | 1810 M⁻¹ s⁻¹ | 27.7 µM |
| CC(C)[C@H](NC(=O)COc1cccc2ccccc12)C(=O)N[C@@H](CC(=O)O)C(=O)COc1c(F)c(F)c(-c2c(F)c(F)c(F)c(F)c2F)c(F)c1F | 52100 M⁻¹ s⁻¹ | 6680 M⁻¹ s⁻¹ | > 50 µM | 20 µM | 27000 M⁻¹ s⁻¹ | 10400 M⁻¹ s⁻¹ | 40 µM |
| CC(C)[C@H](NC(=O)COc1cccc2ccccc12)C(=O)N[C@@H](CC(=O)O)C(=O)COc1ccccc1F | 26800 M⁻¹ s⁻¹ | 6020 M⁻¹ s⁻¹ | 15 µM | > 100 µM | – | 233 M⁻¹ s⁻¹ | 15.7 µM |
| CC(C)[C@H](NC(=O)COc1cccc2ccccc12)C(=O)N[C@@H](CC(=O)O)C(=O)COc1cc(C(F)(F)F)cc(C(F)(F)F)c1 | 5350 M⁻¹ s⁻¹ | 783 M⁻¹ s⁻¹ | > 50 µM | > 100 µM | 193 M⁻¹ s⁻¹ | 68 M⁻¹ s⁻¹ | – |
| CC(C)[C@H](NC(=O)COc1cccc2ccccc12)C(=O)N[C@@H](CC(=O)O)C(=O)COP(=O)(c1ccccc1)c1ccccc1 | 351000 M⁻¹ s⁻¹ | 143000 M⁻¹ s⁻¹ | – | 18.4 µM | 39700 M⁻¹ s⁻¹ | 59300 M⁻¹ s⁻¹ | 3.48 µM |
| CC(C)[C@H](NC(=O)COc1cccc2ccccc12)C(=O)N[C@@H](CC(=O)O)C(=O)COc1ccc2oc(=O)sc2c1 | 5890 M⁻¹ s⁻¹ | 2240 M⁻¹ s⁻¹ | – | > 100 µM | 81 M⁻¹ s⁻¹ | 130 M⁻¹ s⁻¹ | 25.7 µM |
| CC(C)[C@H](NC(=O)COc1cccc2ccccc12)C(=O)N[C@@H](CC(=O)O)C(=O)COc1c(F)ccc(F)c1F | 188000 M⁻¹ s⁻¹ | 47100 M⁻¹ s⁻¹ | 2.43 µM | 1.2 µM | 81700 M⁻¹ s⁻¹ | 17000 M⁻¹ s⁻¹ | – |
